Measurements reported in patent publication US7041639B2, “Depsipeptide and congeners thereof for use as immunosuppressants” (XCYTE Therapies, Inc., priority 1999, dated 2006).

Tests used:
[1] = system: peripheral blood lymphocyte (PBL); experiment: Proliferation by MTT assay, PBL cultures; type: cell-based, human
Protocol: Cells isolated from human blood are grown in X-vivo media (Biowhittaker Inc., Walkersville, Md.) and depending on use supplemented with or without 20 U/ml IL-2 (Boehringer Mannheim, Indianapolis, Ind.) and supplemented with 5% human serum (Biowhittaker), 2 mM Glutamine (Life Technologies, Rockville, Md.) and 20 mM HEPES (Life Technology). Jurkat E6-1 cells (ATCC, Manassas, Va.) are grown in RPMI 1640 (Life Technologies) supplemented with 10% fetal bovine serum (FBS) (Biowhittaker), 2 mM glutamine (Life Technologies), […] (Life Technologies), and […] (Life Technologies).
Buffy coats from healthy human volunteer donors are obtained (American Red Cross, Portland, Oreg.). Peripheral blood mononuclear cells (PBMC) are obtained using Lymphocyte Separation Media (ICN Pharmaceuticals, Costa Mesa, Calif.) according to the manufacturers' instructions.
Peripheral blood lymphocytes (PBL) are obtained from the PBMC fraction by incubation in a culture flask (Costar, Pittsburgh, Pa.) or with uncoated Dynabeads (Dynal, Oslo, Norway), 1×10^8 cells/ml, 2 beads/cell, 2 h at 37° C. Monocytes and macrophages are removed by adherence to the culture flask or phagocytoze the paramagnetic beads that are depleted by magnetic cell separation according to the manufacture's instruction (Dynal). […] The purity of CD4 cells are routinely 91–95% as measured by flow cytometry. […]

T-cells = experiment: Cell survival / viability (sub-G1 DNA, membrane integrity, propidium iodide exclusion); type: cell-based, human
Protocol: Cells are stimulated by three different methodologies 1) Dynabeads (M-450) covalently coupled to anti-CD3 (OKT-3) and anti-CD28 (9.3) antibodies (3×28 beads) according to the manufacturer's instructions (Dynal), 3 beads/cell, 2) Ionomycin (Calbiochem, La Jolla, Calif.) (100 ng/ml) and phorbol 12-myristate-13-acetate (PMA) (Calbiochem) (10 ng/ml), 3) allogeneic dendritic cells (25,000 dendritic cells/200,000 CD4 cells). All cells are stimulated at a concentration of 1×10^6 cells/ml. Cells are incubated with compounds of structure (I) (e.g., FR901228) (NCI, Bethesda, Md.) for 1 to 2 hours prior to stimulation as outlined above. Proliferation assays are conducted in quadruplicate in 96 well flat-bottom plates. Cells are stimulated at 1×10^6 cells/ml in a final volume of 200 μl. Proliferation is measured by MTT assay (MTT assay kit, Chemicon International Inc., Temecula, Calif.) at day 3 (stimulation method 1 and 2) or at day 6 (stimulation method 3), and results are presented as mean value of quadruplicates. PBL cultures or purified CD4 cell cultures are stimulated with 3×28 beads, ionomycin/PMA or allogenic dendritic cells. […] Further, […] cell survival is not affected by FR901228, as assessed by sub-G1 DNA measurement and integrity of the cell membrane (FIG. 5D). […]

With `C/C=C1\NC(=O)[C@H]2CSSCC/C=C/[C@H](CC(=O)N[C@H](C(C)C)C(=O)N2)OC(=O)[C@H](C(C)C)NC1=O` [FR901228] the “inhibition of peripheral blood lymphocyte (PBL) proliferation” value ([1]; stimulation by beads having anti-CD3 and anti-CD28 antibodies, FIG. 1) was “dose dependent inhibition”, the “inhibition of peripheral blood lymphocyte (PBL) proliferation” value ([1]; stimulation with Ionomycin/PMA, FIG. 2) was “dose dependent inhibition” and the “cell survival by sub-G1 DNA measurement and integrity of the cell membrane” value (T-cells; FIG. 5D) was “not affected”. For the same compound, the “cell viability by propidium iodide (PI) exclusion” value (T-cells; concentrations up to 100 ng/ml) was “not significantly affected”.
